# Like-named read-outs stand apart in the source and are kept apart here. Starred links: 1 amine or outer side, 2 acyl side, 3 side chain; linkers in the order of their positions; H or OH if unused. Positions of bridges follow the written chain, without caps; N, C: chain ends. Non-standard residues stand in square brackets, D forms with d. Residues, ends and D or L forms follow the SMILES beside them. ξ: configuration not given here. Ala(benzothiazol-2-yl) = N[C@@H](Cc1nc2ccccc2s1)C(=O)O; X18 = CS(=O)(=O)Nc1ccc(C[C@H](N[*:1])C(=O)[*:2])cc1; Phe(3,4-(OMe)2) = COc1ccc(C[C@H](N)C(=O)O)cc1OC; Phe(4-F) = N[C@@H](Cc1ccc(F)cc1)C(=O)O; 1Nal = N[C@@H](Cc1cccc2ccccc12)C(=O)O; Bta = N[C@@H](Cc1csc2ccccc12)C(=O)O; Hyp = O=C(O)[C@@H]1C[C@@H](O)CN1; NMeF = CN[C@@H](Cc1ccccc1)C(=O)O; NMeNle = CCCC[C@H](NC)C(=O)O; NMeM = CN[C@@H](CCSC)C(=O)O; NMeS = CN[C@@H](CO)C(=O)O; hSer = N[C@@H](CCO)C(=O)O; NMeA = CN[C@@H](C)C(=O)O; Dab = NCC[C@H](N)C(=O)O; Dap = NC[C@H](N)C(=O)O; ξC = NC(CS)C(=O)O; Sar = CNCC(=O)O
# What was measured:
# Human PD-L1/PD-1 = target: T1, Human PD-L1/PD-1 (Homo sapiens, UniProt Q9NZQ7); assay: HTRF PD-1-Ig/PD-L1-His binding assay (human PD-L1)
# T1 construct: made in house; host or cells: HEK293T
# Method in brief: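 Interaction of Fc-tagged soluble PD-1 with His-tagged soluble PD-L1 is monitored by time-resolved FRET. Donor is europium cryptate anti-Ig (1 nM final) and acceptor is APC anti-His (20 nM final). Assay buffer is dPBS with 0.1% BSA and 0.05% Tween-20.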
# [1] = target: T2, LK35.2-hPD-L1 cells / PE-labeled PD-1-Ig (Homo sapiens, UniProt Q9NZQ7); assay: LK35.2-hPD-L1 cell binding high-content screening assay; format: cell-based
# T2 construct: expressed in transfected cells; host or cells: LK35.2 mouse B cell line
# Method in brief: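 Mouse LK35.2 B cells stably over-expressing human PD-L1, cultured overnight, treated with compound plus PE-labeled human PD-1-Ig (1 nM final) in RPMI/10% FCS for 1 h at 37 °C. After washing, bound fluorescence quantified by high-content imaging.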
# [2] = cluster symbol, read-out: HTRF IC50 cluster
# [3] = cell binding assay, cell line not given, cluster symbol, read-out: CBA IC50 cluster
# [4] = cluster symbol, cell line of CBA not given (LK35.2-hPD-L1 or 293T-hPD-L1), read-out: CBA IC50 cluster
# T2 sequence (Q9NZQ7 19-290): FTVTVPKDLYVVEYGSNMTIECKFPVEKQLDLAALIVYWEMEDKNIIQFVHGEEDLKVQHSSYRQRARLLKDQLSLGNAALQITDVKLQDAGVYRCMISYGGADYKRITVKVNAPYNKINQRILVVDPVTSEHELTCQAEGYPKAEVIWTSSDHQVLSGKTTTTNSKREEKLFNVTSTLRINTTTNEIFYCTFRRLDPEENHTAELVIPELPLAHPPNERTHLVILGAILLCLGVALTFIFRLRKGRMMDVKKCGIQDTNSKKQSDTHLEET
# T1 sequence (Q9NZQ7 with tags, fused parts or gaps): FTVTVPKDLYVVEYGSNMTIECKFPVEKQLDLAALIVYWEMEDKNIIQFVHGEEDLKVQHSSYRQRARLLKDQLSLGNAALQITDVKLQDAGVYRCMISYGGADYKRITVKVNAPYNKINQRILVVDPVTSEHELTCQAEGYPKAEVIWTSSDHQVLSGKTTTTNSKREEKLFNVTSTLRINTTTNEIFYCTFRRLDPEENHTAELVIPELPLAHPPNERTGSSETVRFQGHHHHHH
SMILES,IC50 (Human PD-L1/PD-1; [2]) [nM],"IC50 [1, 3] [nM]","IC50 [1, 4] [nM]","IC50 (Human PD-L1/PD-1; numeric value, read-out: HTRF IC50 values) [nM]","IC50 ([1]; cell binding assay, cell line not given, numeric value, read-out: CBA IC50 values) [nM]"
CCCC[C@H]1C(=O)N(C)[C@@H](CO)C(=O)N[C@@H](CCCNC(=N)N)C(=O)NC(C(=O)NCC(N)=O)CSCC(=O)N[C@@H](Cc2ccc(O)cc2)C(=O)N(C)[C@@H](C)C(=O)N[C@@H](CC(N)=O)C(=O)N2CCC[C@H]2C(=O)N[C@@H](Cc2cnc[nH]2)C(=O)N[C@@H](CC(C)C)C(=O)N2CCC[C@H]2C(=O)N[C@@H](Cc2c[nH]c3ccccc23)C(=O)N[C@@H](CO)C(=O)N[C@@H](Cc2c[nH]c3ccccc23)C(=O)N1C (stereo partly shown) [Example 9032] ({CH2CO}-Y[NMeA]NPHLPWSW[NMeNle][NMeS]R[ξC]G-NH2; thioether N-14),6.76 to 30.3,4.78 to 72.9,,,
CCCC[C@H]1C(=O)N(C)CC(=O)N[C@@H](CC(=O)O)C(=O)N[C@@H](C(C)C)C(=O)N(C)[C@@H](Cc2ccccc2)C(=O)N[C@@H](Cc2ccc(O)cc2)C(=O)N(C)CC(=O)N[C@@H](Cc2c[nH]c3ccccc23)C(=O)N[C@@H](Cc2nc3ccccc3s2)C(=O)N[C@@H](CC(C)C)C(=O)N[C@H](C(=O)NCC(N)=O)CSCC(=O)N[C@@H](Cc2ccccc2)C(=O)N(C)[C@@H](Cc2ccccc2)C(=O)N1C [Example 3558] ({CH2CO}-F[NMeF][NMeNle][Sar]DV[NMeF]Y[Sar]W[Ala(benzothiazol-2-yl)]LCG-NH2; thioether N-13),> 30.5,> 74.3,,,
CCCC[C@H]1C(=O)N(C)[C@@H](CCCC)C(=O)N[C@@H](CCCNC(=N)N)C(=O)N[C@H](C(=O)NCC(N)=O)CSCC(=O)N[C@@H](Cc2ccc(F)cc2)C(=O)N(C)[C@@H](C)C(=O)N[C@@H](CC(N)=O)C(=O)N2CCC[C@H]2C(=O)N[C@@H](Cc2cnc[nH]2)C(=O)N[C@@H](CC(C)C)C(=O)N2C[C@H](O)C[C@H]2C(=O)N[C@@H](Cc2c[nH]c3ccccc23)C(=O)N[C@@H](CO)C(=O)N[C@@H](Cc2c[nH]c3ccccc23)C(=O)N1C [Example 7047] ({CH2CO}-[Phe(4-F)][NMeA]NPHL[Hyp]WSW[NMeNle][NMeNle]RCG-NH2; thioether N-14),0.385 to 6.74,4.78 to 72.9,,,
CCCC[C@H]1C(=O)N(C)[C@@H](CCCC)C(=O)N[C@@H](CCN)C(=O)N[C@H](C(=O)NCC(N)=O)CSCC(=O)N[C@@H](Cc2ccc(O)cc2)C(=O)N(C)[C@@H](C)C(=O)N[C@@H](CC(N)=O)C(=O)N2CCC[C@H]2C(=O)N[C@@H](Cc2cnc[nH]2)C(=O)N[C@@H](CCC(N)=O)C(=O)N2C[C@H](O)C[C@H]2C(=O)N[C@@H](Cc2c[nH]c3ccccc23)C(=O)N[C@@H](CCN)C(=O)N[C@@H](Cc2c[nH]c3ccccc23)C(=O)N1C [Example 5043] ({CH2CO}-Y[NMeA]NPHQ[Hyp]W[Dab]W[NMeNle][NMeNle][Dab]CG-NH2; thioether N-14),6.76 to 30.3,0.158 to 4.71,,,
"CCCC[C@H]1C(=O)N(C)CC(=O)N[C@@H](CC(=O)O)C(=O)N[C@@H](C(C)C)C(=O)N(C)[C@@H](Cc2ccccc2)C(=O)N[C@@H](Cc2ccc(O)cc2)C(=O)N(C)CC(=O)N[C@@H](Cc2c[nH]c3ccccc23)C(=O)N[C@@H](Cc2ccc(OC)c(OC)c2)C(=O)N[C@@H](CC(C)C)C(=O)N[C@H](C(=O)NCC(N)=O)CSCC(=O)N[C@@H](Cc2ccccc2)C(=O)N(C)[C@@H](Cc2ccccc2)C(=O)N1C [Example 3541] ({CH2CO}-F[NMeF][NMeNle][Sar]DV[NMeF]Y[Sar]W[Phe(3,4-(OMe)2)]LCG-NH2; thioether N-13)",> 30.5,> 74.3,,,
CCCC[C@H]1C(=O)N(C)[C@@H](CCCC)C(=O)N[C@@H](CCCNC(=N)N)C(=O)N[C@H](C(=O)NCC(N)=O)CSCC(=O)N[C@@H](Cc2ccc(NS(C)(=O)=O)cc2)C(=O)N(C)[C@@H](C)C(=O)N[C@@H](CC(N)=O)C(=O)N2CCC[C@H]2C(=O)N[C@@H](Cc2cnc[nH]2)C(=O)N[C@@H](CC(C)C)C(=O)N(C)CC(=O)N[C@@H](Cc2c[nH]c3ccccc23)C(=O)N[C@@H](CO)C(=O)N[C@@H](Cc2c[nH]c3ccccc23)C(=O)N1C [Example 1100] ({CH2CO}-[X18][NMeA]NPHL[Sar]WSW[NMeNle][NMeNle]RCG-NH2; thioether N-14),> 30.5,,> 74.3,,
CCCC[C@H]1C(=O)N(C)[C@@H](CCSC)C(=O)N[C@@H](CCCNC(=N)N)C(=O)NC(C(=O)NCC(N)=O)CSCC(=O)N[C@@H](Cc2ccc(O)cc2)C(=O)N(C)[C@@H](C)C(=O)N[C@@H](CC(N)=O)C(=O)N2CCC[C@H]2C(=O)N[C@@H](Cc2cnc[nH]2)C(=O)N[C@@H](CO)C(=O)N2CCC[C@H]2C(=O)N[C@@H](Cc2c[nH]c3ccccc23)C(=O)N[C@@H](CO)C(=O)N[C@@H](Cc2c[nH]c3ccccc23)C(=O)N1C (stereo partly shown) [Example 9105] ({CH2CO}-Y[NMeA]NPHSPWSW[NMeNle][NMeM]R[ξC]G-NH2; thioether N-14),0.385 to 6.74,4.78 to 72.9,,,
CCCC[C@H]1C(=O)N(C)[C@@H](CCCC)C(=O)N[C@@H](CCCNC(=N)N)C(=O)NC(C(=O)NCC(N)=O)CSCC(=O)N[C@@H](Cc2ccc(O)cc2)C(=O)N(C)[C@@H](C)C(=O)N[C@@H](CC(N)=O)C(=O)N2C[C@H](O)C[C@H]2C(=O)N[C@@H](Cc2cnc[nH]2)C(=O)N[C@@H](CC(C)C)C(=O)N2CCC[C@H]2C(=O)N[C@@H](Cc2c[nH]c3ccccc23)C(=O)N[C@@H](CO)C(=O)N[C@@H](Cc2c[nH]c3ccccc23)C(=O)N1C (stereo partly shown) [Example 9011] ({CH2CO}-Y[NMeA]N[Hyp]HLPWSW[NMeNle][NMeNle]R[ξC]G-NH2; thioether N-14),,,,9.4,13.5
CCCC[C@H]1C(=O)N(C)[C@@H](CCSC)C(=O)N[C@@H](CCCNC(=N)N)C(=O)NC(C(=O)NCC(N)=O)CSCC(=O)N[C@@H](Cc2ccc(O)cc2)C(=O)N(C)[C@@H](C)C(=O)N[C@@H](CC(N)=O)C(=O)N2CCC[C@H]2C(=O)N[C@@H](Cc2cnc[nH]2)C(=O)N[C@@H](CC(C)C)C(=O)N2CCC[C@H]2C(=O)N[C@@H](Cc2c[nH]c3ccccc23)C(=O)N[C@@H](CO)C(=O)N[C@@H](Cc2c[nH]c3ccccc23)C(=O)N1C (stereo partly shown) [Example 9030] ({CH2CO}-Y[NMeA]NPHLPWSW[NMeNle][NMeM]R[ξC]G-NH2; thioether N-14),0.385 to 6.74,0.158 to 4.71,,,
"CCCC[C@H]1C(=O)N(C)CC(=O)N[C@@H](CC(=O)O)C(=O)N[C@@H](C(C)C)C(=O)N(C)[C@@H](Cc2ccccc2)C(=O)N[C@@H](Cc2ccc(O)cc2)C(=O)N(C)CC(=O)N[C@@H](Cc2c[nH]c3ccccc23)C(=O)N[C@@H](Cc2ccc(O)cc2)C(=O)N[C@@H](CC(C)C)C(=O)N[C@H](C(=O)NCC(N)=O)CSCC(=O)N[C@@H](Cc2ccccc2)C(=O)N(C)[C@@H](CCC(=O)O)C(=O)N1C [Example 3064] (HELM PEPTIDE1{[O=C(C[*:3])[*:2]].F.[meE].[CCCC[C@@H](C(=O)[*:2])N(C)[*:1]].[Sar].D.V.[meF].Y.[Sar].W.Y.L.C.G.[am]}$PEPTIDE1,PEPTIDE1,1:R3-14:R3$$$V2.0)",6.76 to 30.3,,> 74.3,,
CCCC[C@H]1C(=O)N(C)[C@@H](CCCC)C(=O)N[C@@H](CN)C(=O)N[C@H](C(=O)NCC(N)=O)CSCC(=O)N[C@@H](Cc2ccc(O)cc2)C(=O)N(C)[C@@H](C)C(=O)N[C@@H](CC(N)=O)C(=O)N2CCC[C@H]2C(=O)N[C@@H](CN)C(=O)N[C@@H](CCC(N)=O)C(=O)N2C[C@H](O)C[C@H]2C(=O)N[C@@H](Cc2c[nH]c3ccccc23)C(=O)N[C@@H](CCN)C(=O)N[C@@H](Cc2csc3ccccc23)C(=O)N1C [Example 1225] ({CH2CO}-Y[NMeA]NP[Dap]Q[Hyp]W[Dab][Bta][NMeNle][NMeNle][Dap]CG-NH2; thioether N-14),0.385 to 6.74,,0.158 to 4.71,,
CCCC[C@H]1C(=O)N(C)[C@@H](CCCC)C(=O)N[C@@H](CCCNC(=N)N)C(=O)N[C@@H](C(=O)NCC(N)=O)CSCC(=O)N[C@@H](Cc2ccccc2)C(=O)N(C)[C@@H](C)C(=O)N[C@@H](CC(N)=O)C(=O)N2CCC[C@H]2C(=O)N[C@@H](Cc2cnc[nH]2)C(=O)N[C@@H](CC(C)C)C(=O)N(C)CC(=O)N[C@@H](Cc2c[nH]c3ccccc23)C(=O)N[C@@H](CO)C(=O)N[C@@H](Cc2cccc3ccccc23)C(=O)N1C [Example 1002] ({CH2CO}-F[NMeA]NPHL[Sar]WS[1Nal][NMeNle][NMeNle]R[dC]G-NH2; thioether N-14),6.76 to 30.3,,4.78 to 72.9,,
CCCC[C@H]1C(=O)N(C)[C@@H](CCCC)C(=O)N[C@@H](CCCNC(=N)N)C(=O)NC(C(=O)NCC(N)=O)CSCC(=O)N[C@@H](Cc2ccc(O)cc2)C(=O)N(C)[C@@H](CO)C(=O)N[C@@H](CC(N)=O)C(=O)N2CCC[C@H]2C(=O)N[C@@H](Cc2cnc[nH]2)C(=O)N[C@@H](CC(C)C)C(=O)N2C[C@H](O)C[C@H]2C(=O)N[C@@H](Cc2c[nH]c3ccccc23)C(=O)N[C@@H](CO)C(=O)N[C@@H](Cc2c[nH]c3ccccc23)C(=O)N1C (stereo partly shown) [Example 9036],0.385 to 6.74,0.158 to 4.71,,,
CCCC[C@H]1C(=O)N(C)[C@@H](CCCC)C(=O)N[C@@H](CCCNC(=N)N)C(=O)NC(C(=O)NCC(N)=O)CSCC(=O)N[C@@H](Cc2ccc(O)cc2)C(=O)N(C)[C@@H](C)C(=O)N[C@@H](CC(N)=O)C(=O)N2CCC[C@H]2C(=O)N[C@@H](Cc2cnc[nH]2)C(=O)N[C@@H](CC(C)C)C(=O)N2CCC[C@H]2C(=O)N[C@@H](Cc2c[nH]c3ccccc23)C(=O)N[C@@H](CCO)C(=O)N[C@@H](Cc2c[nH]c3ccccc23)C(=O)N1C (stereo partly shown) [Example 9047] ({CH2CO}-Y[NMeA]NPHLPW[hSer]W[NMeNle][NMeNle]R[ξC]G-NH2; thioether N-14),0.385 to 6.74,0.158 to 4.71,,,
